Measured values taken from patent US4935240A, “Benzoylaminophenoxybutanoic acid derivatives” (Ono Pharmaceutical Co., Ltd., priority 1987, dated 1990).

Molecular target: 5α-reductase
Experiment: 5α-reductase inhibitory activity in vitro
Type: biochemical
Conditions: rat prostate enzyme, [4-C14]testosterone + NADPH, 60 mins at 37° C.
Procedure: 5α-reductase inhibitory activity in vitro
Inhibitory activity on 5α-reductase in vitro was measured by the following test system.
The test was carried out by being referred to the method of J. Shimazaki et al [See Endocrinol, Japan., 18, 179 (1971)].
Male rats' prostate (4g) was homogenized with its 3-fold volume of 0.1 M HEPES buffer (pH 7.4) including 0.25 M cane sugar, and was centrifuged at 3000 r.p.m. for 10 mins.
The precipitate was suspended into the buffer solution described above (10 ml), and the suspension was centrifuged at 3000 r.p.m. for 5 mins. The resulting precipitated was suspended in the buffer solution (3 ml) described above and was used as a sauce of enzyme.
A reaction mixture (total volume 0.1 ml) of [4-c^14 ]testosterone (1.5n mol, 1.5×10^5 cpm), NADPH (0.5 μmol), enzyme solution (0.03 ml) described above and several kinds of concentration of the compounds in the present invention was incubated for 60 mins at 37° C. Enzyme reaction was quenched by addition of a mixture (0.4 ml) of chloroform and methanol (1:2), and the mixture was centrifuged at 2000 r.p.m. for 3 mins. The supernatant (50 μl) was spotted on silica gel thin layer plate. The spot on the plate was developed with a mixture of chloroform, methanol and acetic acid (99.2:0.6:0.2). Radioactivity of dihydrotestosterone generated on the plate was measured by TLC scanner of radio-autography and inhibitory ratio was calculated.

SMILES	IC50 [nM]
O=C(O)CCCOc1ccccc1NC(=O)c1ccc(OCc2ccccc2)cc1 [1(a), 4-[2-(4-benzyloxybenzoylamino)phenoxy]butanoic acid]	200
Cc1ccc(COc2ccc(C(=O)Nc3ccccc3OCCCC(=O)O)cc2)cc1 [1(b), 4-[2-[4-(4-methylphenylmethoxy)benzoylamino]phenoxy]butanoic acid]	330
CCc1ccc(COc2ccc(C(=O)Nc3ccccc3OCCCC(=O)O)cc2)cc1 [1(c), 4-[2-[4-(4-ethylphenylmethoxy)benzoylamino]phenoxy]butanoic acid]	320
CCCc1ccc(COc2ccc(C(=O)Nc3ccccc3OCCCC(=O)O)cc2)cc1 [1(d), 4-[2-[4-(4-propylphenylmethoxy)benzoylamino]phenoxy]butanoic acid]	130
CC(C)c1ccc(COc2ccc(C(=O)Nc3ccccc3OCCCC(=O)O)cc2)cc1 [1(e), 4-[2-[4-(4-isopropylphenylmethoxy)benzoylamino]phenoxy]butanoic acid]	220
O=C(O)CCCOc1ccccc1NC(=O)c1ccc(OCCCc2ccccc2)cc1 [1(f), 4-[2-[4-(3-phenylpropoxy)benzoylamino]phenoxy]butanoic acid]	200
O=C(O)CCCOc1ccccc1NC(=O)c1ccc(OCCCCc2ccccc2)cc1 [1(g), 4-[2-[4-(4-phenylbutoxy)benzoylamino]phenoxy]butanoic acid]	440
Cc1cc(OCc2ccc(CC(C)C)cc2)ccc1C(=O)Nc1ccccc1OCCCC(=O)O [1(h), 4-[2-[4-(4-isobutyphenylmethoxy)-2-methylbenzoylamino]phenoxy]butanoic acid]	570
Cc1cc(C(=O)Nc2ccccc2OCCCC(=O)O)ccc1OCc1ccc(CC(C)C)cc1 [1(i), 4-[2-[4-(4-isobutyphenylmethoxy)-3-methylbenzoylamino]phenoxy]butanoic acid]	430
CCCc1ccc(CN(Cc2ccc(CCC)cc2)c2ccc(C(=O)Nc3ccccc3OCCCC(=O)O)cc2)cc1 [2(a), 4-[2-[4-[N, N-bis(4-propylbenzyl)amino]benzoylamino]phenoxy] butanoic acid]	23
Cc1cc(N(Cc2ccc(CC(C)C)cc2)Cc2ccc(CC(C)C)cc2)ccc1C(=O)Nc1ccccc1OCCCC(=O)O [2(b), 4-[2-[4-[N, N-bis(4-isobutylbenzyl)amino]-2-methylbenzoylamino]phenoxy]butanoic]	25
CCCCCN(CCCCC)c1ccc(C(=O)Nc2ccccc2OCCCC(=O)O)c(C)c1 [2(c), 4-[2-[4-[N, N-dipenthylamino)-2-methylbenzoylamino]phenoxy] butanoic acid]	300
CCCCCN(Cc1ccc(CCC)cc1)c1ccc(C(=O)Nc2ccccc2OCCCC(=O)O)c(C)c1 [2(d)]	25
CCCc1ccc(CN(C)c2ccc(C(=O)Nc3ccccc3OCCCC(=O)O)c(C)c2)cc1 [2(e), 4-[2-[4-[N-methyl-N-(4-propylbenzyl)amino]-2-methylbenzoylamino]phenoxy]butanoic]	44
Cc1cc(N(CCCCc2ccccc2)CCCCc2ccccc2)ccc1C(=O)Nc1ccccc1OCCCC(=O)O [2(f), 4-[2-[4-[N, N-bis(4-phenylbutyl)amino]-2-methylbenzoylamino]phenoxy]butanoic]	170
Cc1cc(N(Cc2ccc(C(C)C)cc2)Cc2ccc(C(C)C)cc2)ccc1C(=O)Nc1ccccc1OCCCC(=O)O [2(g), 4-[2-[4-[N, N-bis(4-isopropylbenzyl)amino]-2-methylbenzoylamino]phenoxy] butanoic]	27
Cc1cc(N(Cc2ccc(F)cc2F)Cc2ccc(F)cc2F)ccc1C(=O)Nc1ccccc1OCCCC(=O)O [2(h)]	140
CCCc1ccc(CN(C(=O)c2ccc(CCC)cc2)c2ccc(C(=O)Nc3ccccc3OCCCC(=O)O)c(C)c2)cc1 [2(i)]	150
Cc1cc(N(Cc2ccccc2C(F)(F)F)Cc2ccccc2C(F)(F)F)ccc1C(=O)Nc1ccccc1OCCCC(=O)O [2(j)]	26

SMILES	IC50 [nM]
Cc1cc(N(Cc2ccc(C(F)(F)F)cc2)Cc2ccc(C(F)(F)F)cc2)ccc1C(=O)Nc1ccccc1OCCCC(=O)O [2(k), 4-[2-[4-[N,N-bis-(4-trifluoromethylbenzyl)amino]-2-methylbenzoylamino]phenoxy] butanoic]	580
CC(C)Cc1ccc(CNc2ccc(C(=O)Nc3ccccc3OCCCC(=O)O)cc2)cc1 [2(l), 4-[2-[4-(4-isobutylbenzylamino)benzoylamino]phenoxy] butanoic acid]	150
Cc1cc(NCc2ccc(CC(C)C)cc2)ccc1C(=O)Nc1ccccc1OCCCC(=O)O [2(m), 4-[2-[4-(4-isobutylbenzylamino)-2-methylbenzoylamino]phenoxy] butanoic acid]	120
CCCc1ccc(CNc2ccc(C(=O)Nc3ccccc3OCCCC(=O)O)c(C)c2)cc1 [2(n), 4-[2-[4-(4-propylbenzylamino)-2-methylbenzoylamino]phenoxy] butanoic acid]	40
Cc1cc(NC(C)c2ccc(CC(C)C)cc2)ccc1C(=O)Nc1ccccc1OCCCC(=O)O (centres unmarked) [2(o), 4-[2-[4-[1-(4-isobutylphenyl)ethylamino]-2-methylbenzoylamino]pehnoxy]butanoic]	35
Cc1cc(NCc2ccc(C(C)C)cc2)ccc1C(=O)Nc1ccccc1OCCCC(=O)O [2(p), 4-[2-[4-(4-isopropylbenzylamino)-2-methylbenzoylamino]phenoxy] butanoic acid]	80
Cc1cc(NCc2ccccc2C(F)(F)F)ccc1C(=O)Nc1ccccc1OCCCC(=O)O [2(q), 4-[2-[4-(2-trifluoromethylbenzylamino)-2-methylbenzoylamino]phenoxy] butanoic]	220
CCCc1ccc(C(Nc2ccc(C(=O)Nc3ccccc3OCCCC(=O)O)c(C)c2)c2ccc(CCC)cc2)cc1 [2(r), 4-[2-[4-[bis(4-propylphenyl)methylamino]-2-methylbenzoylamino]phenoxy] butanoic]	2.5
CCCc1ccc(C(Nc2ccc(C(=O)Nc3ccccc3OCCCC(=O)O)cc2)c2ccc(CCC)cc2)cc1 [2(s), 4-[2-[4-[bis(4-propylphenyl)methylamino]benzoylamino]phenoxy] butanoic acid]	11
CCCc1ccc(CNc2ccc(C(=O)Nc3ccccc3SCCCC(=O)O)c(C)c2)cc1 [3(a), 4-[2-[4-(4-propylbenzylamino)-2-methylbenzoylamino]phenylthio] butanoic acid]	56
CCCc1ccc(CN(Cc2ccc(CCC)cc2)c2ccc(C(=O)Nc3ccccc3SCCCC(=O)O)c(C)c2)cc1 [3(b), 4-[2-[4-[N,N-bis(4-propylbenzyl)amino]-2-methylbenzoylamino]phenylthio]butanoic]	25
CCCc1ccc(C(Oc2ccc(C(=O)Nc3ccccc3OCCCC(=O)O)cc2)c2ccc(CCC)cc2)cc1 [4(a), 4-[2-[4-[bis(4-propylphenyl)methoxy]benzoylamino]phenoxy] butanoic acid]	3
CCCc1ccc(C(Oc2ccc(C(=O)Nc3ccccc3OCCCC(=O)O)c(C)c2)c2ccc(CCC)cc2)cc1 [4(b), 4-[2-[4-[bis(4-propylphenyl)methoxy]-2-methylbenzoylamino]phenoxy]butanoic]	6.5
O=C(O)CCCOc1ccccc1NC(=O)c1ccc(CNc2cccc3c2CCCC3)cc1 [6(b), 4-[2-[4-(5,6,7,8-tetrahydronaphthalene-1-yl)aminomethylbenzoylamino]phenoxy] butanoic]	230
CN(Cc1ccc(C(=O)Nc2ccccc2OCCCC(=O)O)cc1)c1cccc2c1CCCC2 [6(c), 4-[2-[4-[N-methyl-N-(5,6,7,8,- tetrahydronaphthalene-1-yl)aminomethyl]benzoylamino]phenoxy] butanoic acid]	140
O=C(O)CCCOc1ccccc1NC(=O)c1ccc(OCCCCc2ccccc2)cc1 [Compared compound 2, reference compound]	> 20000
CC(C)Cc1ccc(COc2ccc(C(=O)Nc3ccccc3OCCCC(=O)O)cc2)cc1 [Example 1, 4-[2-[4-(4-isobutylphenylmethoxy)benzoylamino]phenoxy]butanoicacid]	80
CCCc1ccc(CN(Cc2ccc(CCC)cc2)c2ccc(C(=O)Nc3ccccc3OCCCC(=O)O)c(C)c2)cc1 [Example 2, 4-[2-[2-methyl-4-[N,N-bis(4-propylbenzyl)amino]benzoylamino]phenoxy]butanoic acid]	11
CCCc1ccc(CN(Cc2ccc(CCC)cc2)c2ccc(C(=O)Nc3ccccc3[S+]([O-])CCCC(=O)O)c(C)c2)cc1 (centres unmarked) [Example 5, 4-[2-[4-[N,N-bis(4-propylbenzyl)amino]-2-methylbenzoylamino]phenylsulfinyl]butanoic acid]	65
